The subject of experiment [1] is Staphylococcus aureus. In words: Antibacterial activity against methicillin-resistant Staphylococcus aureus after 20 hrs. In kind it is functional.
Experiment [2] relates to Staphylococcus aureus. Nature of the experiment: Antibacterial activity against Staphylococcus aureus Smith after 20 hrs. Format: functional.
Another experiment concerns Enterococcus faecalis. In words: Antibacterial activity against Enterococcus faecalis after 20 hrs. Format: functional.
Another experiment relates to Bacillus subtilis. Nature of the experiment: Antibacterial activity against Bacillus subtilis after 20 hrs. In kind it is functional.
For another experiment, the system named is Streptococcus pneumoniae. In words: Antibacterial activity against Streptococcus pneumoniae up to 1.4 mM after 20 hrs. Format: functional, organism-based.
In the next experiment the test system is Haemophilus influenzae. Nature of the experiment: Antibacterial activity against Haemophilus influenzae up to 1.4 mM after 20 hrs. Format: functional, organism-based.
The test system of another experiment is Escherichia coli. Nature of the experiment: Antibacterial activity against Escherichia coli up to 1.4 mM after 20 hrs. Format: functional, organism-based.
In the next experiment the test system is Candida albicans. Nature of the experiment: Antifungal activity against Candida albicans up to 1.4 mM after 24 hrs. In kind it is functional, organism-based.

This passage reports MIC and Activity results from ChEMBL document CHEMBL1151804, “Antisense-guided isolation and structure elucidation of pannomycin, a substituted cis-decalin from Geomyces pannorum” (2009).

SMILES strings stand for the structures. In brackets after ≈: the same amount, converted by molar mass. Activity calls are given as the source filed them. No cut-off for these calls is given here.

In the experiment with Staphylococcus aureus [1], `C/C=C/[C@@H]1C(C)=C[C@@H]2CC[C@@H](C)C[C@@H]2[C@]1(C)C(=O)C1=C(O)C(CO)N(C)C1=O` (some centres undefined) displayed an MIC of 12 µM (≈ 4.65 µg/mL).

Consider `C/C=C/[C@@H]1C=C[C@@H]2C[C@@H](C)CC[C@@H]2[C@]1(C)C(=O)C1=C(O)C(C(C)O)N(C)C1=O` (some centres undefined) [CISSETIN], for which, in the experiment with Staphylococcus aureus [1], the minimal inhibitory concentration (MIC) was 10 µM (≈ 3.88 µg/mL).

Consider `C/C=C/[C@H]1C(C)=C[C@H]2C[C@H](C)[C@H](O)C[C@H]2[C@]1(C)/C=C(C)/C=C/C(=O)O` [PANNOMYCIN], for which the MIC against Staphylococcus aureus [2] amounted to 1400 µM (≈ 482 µg/mL); in the experiment with Enterococcus faecalis, 1400 µM (≈ 482 µg/mL); against Bacillus subtilis, 400 µM (≈ 138 µg/mL). The result in the experiment with Streptococcus pneumoniae, in the experiment on Haemophilus influenzae, in the experiment on Escherichia coli and in the experiment on Candida albicans was inactive.

A word on the MIC: it is the lowest concentration that inhibits growth of the organism. High values mean weaker potency, low ones greater potency.
